# Measurements taken from patent US20260200939A1, “MOLECULAR GLUE DEGRADER COMPOUNDS AND USES THEREOF” (Novartis AG, priority 2022, published 2026).
# Molecular target: T1, BRD4 short (Homo sapiens, UniProt O60885)
# T1 construct: endogenous in cells; host or cells: HEK293T
# Assay: BRD4 (short) degradation assay, Western blotting
# Assay type: cell-based
# Settings: second value of cell (long/short)
# Method in brief: (§1)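 Cell lines were grown at 37° C with 5% CO2 (HEK293T and C33A in DMEM, A549 in F-12K, 22RV1, LNCaP and Mino in RPMI-1640, K562 and MV-4-11 in IMDM, all with 10% FBS). Lysates were BCA-normalized, then SDS/PAGE Western blots were probed with target-specific antibodies and read by IR680/IR800 fluorescent secondaries on Li-Cor.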
row,SMILES,DC50
1,"Cc1sc2c(c1C)C(c1ccc(Cl)cc1)=N[C@@H](CC(=O)N1CCN(C(=O)/C=C/C(=O)c3ccc(C#N)cc3)CC1)c1nnc(C)n1-2 [Compound 238, (S,E)-4-(4-(4-(2-(4-(4-chlorophenyl)-2,3,9-trimethyl-6H-thieno[3,2-f][1,2,4]triazolo[4,3-a][1,4]diazepin-6-yl)acetyl)piperazin-1-yl)-4-oxobut-2-enoyl)benzonitrile]",< 100 nM
2,"COc1cccc(C(=O)/C=C/C(=O)N2CCN(C(=O)C[C@@H]3N=C(c4ccc(Cl)cc4)c4c(sc(C)c4C)-n4c(C)nnc43)CC2)c1 [Compound 143, (S,E)-1-(4-(2-(4-(4-chlorophenyl)-2,3,9-trimethyl-6H-thieno[3,2-f][1,2,4]triazolo[4,3-a][1,4]diazepin-6-yl)acetyl)piperazin-1-yl)-4-(3-methoxyphenyl)but-2-ene-1,4-dione]",< 100 nM
3,"COc1ccc(C(=O)/C=C/C(=O)N2CCN(C(=O)C[C@@H]3N=C(c4ccc(Cl)cc4)c4c(sc(C)c4C)-n4c(C)nnc43)CC2)c(Cl)c1 [Compound 240, (S,E)-1-(2-chloro-4-methoxyphenyl)-4-(4-(2-(4-(4-chlorophenyl)-2,3,9-trimethyl-6H-thieno[3,2-f][1,2,4]triazolo[4,3-a][1,4]diazepin-6-yl)acetyl)piperazin-1-yl)but-2-ene-1,4-dione]",10 to 100 nM

# Molecular target: T2, BRD4 long (Homo sapiens, UniProt O60885)
# T2 construct: endogenous in cells; host or cells: HEK293T
# Assay: BRD4 (long) degradation assay, Western blotting
# Assay type: cell-based
# Settings: first value of cell (long/short)
# Method in brief: as §1
row,SMILES,DC50
1,"COc1cccc(C(=O)/C=C/C(=O)N2CCN(C(=O)C[C@@H]3N=C(c4ccc(Cl)cc4)c4c(sc(C)c4C)-n4c(C)nnc43)CC2)c1 [Compound 143, (S,E)-1-(4-(2-(4-(4-chlorophenyl)-2,3,9-trimethyl-6H-thieno[3,2-f][1,2,4]triazolo[4,3-a][1,4]diazepin-6-yl)acetyl)piperazin-1-yl)-4-(3-methoxyphenyl)but-2-ene-1,4-dione]",< 100 nM
2,"COc1ccc(C(=O)/C=C/C(=O)N2CCN(C(=O)C[C@@H]3N=C(c4ccc(Cl)cc4)c4c(sc(C)c4C)-n4c(C)nnc43)CC2)c(Cl)c1 [Compound 240, (S,E)-1-(2-chloro-4-methoxyphenyl)-4-(4-(2-(4-(4-chlorophenyl)-2,3,9-trimethyl-6H-thieno[3,2-f][1,2,4]triazolo[4,3-a][1,4]diazepin-6-yl)acetyl)piperazin-1-yl)but-2-ene-1,4-dione]",< 10 nM

# Same assay, conditions: first value of cell; range with lower bound in nM and upper bound in μM
row,SMILES,DC50
1,"Cc1sc2c(c1C)C(c1ccc(Cl)cc1)=N[C@@H](CC(=O)N1CCN(C(=O)/C=C/C(=O)c3ccc(C#N)cc3)CC1)c1nnc(C)n1-2 [Compound 238, (S,E)-4-(4-(4-(2-(4-(4-chlorophenyl)-2,3,9-trimethyl-6H-thieno[3,2-f][1,2,4]triazolo[4,3-a][1,4]diazepin-6-yl)acetyl)piperazin-1-yl)-4-oxobut-2-enoyl)benzonitrile]",100 to 1000 nM

# Molecular target: T3, Recombinant RNF126 (Homo sapiens, UniProt Q9BV68)
# T3 construct: FLAG (C); host or cells: HEK293T
# T3 sequence (Q9BV68 whole entry): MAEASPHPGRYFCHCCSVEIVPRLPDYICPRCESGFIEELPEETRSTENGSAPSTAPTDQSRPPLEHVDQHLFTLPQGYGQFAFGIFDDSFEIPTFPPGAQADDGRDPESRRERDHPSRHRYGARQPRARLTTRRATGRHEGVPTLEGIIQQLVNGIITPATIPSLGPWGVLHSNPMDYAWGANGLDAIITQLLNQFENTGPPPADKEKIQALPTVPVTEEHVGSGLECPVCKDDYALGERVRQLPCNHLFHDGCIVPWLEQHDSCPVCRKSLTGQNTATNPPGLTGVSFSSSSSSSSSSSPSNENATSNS
# Assay: RNF126 Binding Assay, gel-based ABPP
# Settings: not given
# Description: RNF126 mammalian expression plasmid with a C-terminal FLAG tag was purchased from Origene (Origene Technologies Inc., RC204986). The plasmid was transformed into NEB 5-alpha Competent E. coli (DH5) cells (NEB product no. C2987H). The following day, a single transformed colony was used to inoculate 50 ml of nutrient rich LB medium containing kanamycin (50 μg/ml) and was incubated at 37° C. overnight, with agitation (250 rpm). A Miniprep (Qiagen) kit was used to isolate the plasmid before sequence verification with appropriate primers.
# HEK293T cells were grown to 30-50% confluency in DMEM supplemented with 10% FBS (Corning) and maintained at 37° C. with 5% CO2. Immediately before transfection, media was replaced with DMEM containing 5% FBS. Each plate was transfected with 24 μg of overexpression plasmid with 24 μL Lipofectamine 3000 (Invitrogen) in Opti-MEM. After 48 h cells were collected in PBS, lysed by sonication, and batch bound with anti-DYKDDDDK resin (GenScript, L00432) for 2 hours. Lysate and resin were washed with PBS and eluted with 133.33 μg/ml 3×FLAG peptide (ApexBio, A6001) in PBS. Five elutions were performed for 15 minutes each. Elutions were concentrated and the protein was stored in PBS. Concentration and purity was determined using the BCA assay and western blotting.
# Recombinant RNF126 ([…]) was pre-treated with either DMSO vehicle or covalent ligand at 37° C. for 30 min in 25 μL of PBS, and subsequently treated with of IA-Rhodamine (concentrations designated in figure legends) (Setareh Biotech) at room temperature for 1 h in the dark. The reaction was stopped by addition of 4×reducing Laemmli SDS sample loading buffer (Alfa Aesar). After boiling at 95° C. for 5 min, the samples were separated on precast 4-20% Criterion TGX gels (Bio-Rad). Probe-labeled proteins were analyzed by in-gel fluorescence using a ChemiDoc MP (Bio-Rad).
row,SMILES,IC50
1,"COc1ccc(C(=O)/C(C)=C/C(=O)N2CCNCC2)cc1 [Compound 145, (E)-1-(4-methoxyphenyl)-2-methyl-4-(piperazin-1-yl)but-2-ene-1,4-dione]",> 50000 nM
2,"CC(C)(C)OC(=O)N1CCN(C(=O)/C=C/C(=O)c2ccc(Br)cc2)CC1 [Compound 164, tert-butyl (E)-4-(4-(4-bromophenyl)-4-oxobut-2-enoyl)piperazine-1-carboxylate]",< 100 nM
3,"CC(C)(C)OC(=O)N1CCN(C(=O)/C=C/C(=O)c2ccc3c(c2)OCC3)CC1 [Compound 404, tert-butyl (E)-4-(4-(2,3-dihydrobenzofuran-6-yl)-4-oxobut-2-enoyl)piperazine-1-carboxylate]",< 100 nM
4,"CC(C)(C)OC(=O)N1CCN(C(=O)/C=C/C(=O)c2ccc(C#N)cc2)CC1 [Compound 416, tert-butyl (E)-4-(4-(4-cyanophenyl)-4-oxobut-2-enoyl)piperazine-1-carboxylate]",< 100 nM
5,"CC(C)(C)OC(=O)N1CCN(C(=O)/C=C/C(=O)c2ccc3c(c2)NC(=O)CO3)CC1 [Compound 401, tert-butyl (E)-4-(4-oxo-4-(3-oxo-3,4-dihydro-2H-benzo[b][1,4]oxazin-6-yl)but-2-enoyl)piperazine-1-carboxylate]",< 100 nM
6,"CC(C)(C)OC(=O)N1CCN(C(=O)/C=C/C(=O)c2cccc(Br)c2)CC1 [Compound 163, tert-butyl (E)-4-(4-(3-bromophenyl)-4-oxobut-2-enoyl)piperazine-1-carboxylate]",< 100 nM
7,"O=C(/C=C/C(=O)N1CCNCC1)c1ccccc1F [Compound 149, (E)-1-(2-fluorophenyl)-4-(piperazin-1-yl)but-2-ene-1,4-dione]",1000 to 10000 nM
8,"COc1cccc(C(=O)/C=C/C(=O)N2CCN(C(=O)OC(C)(C)C)CC2)c1 [Compound 156, tert-butyl (E)-4-(4-(3-methoxyphenyl)-4-oxobut-2-enoyl)piperazine-1-carboxylate]",< 100 nM
9,"O=C(/C=C/C(=O)N1CCNCC1)c1ccc(F)cc1 [Compound 150, (E)-1-(4-fluorophenyl)-4-(piperazin-1-yl)but-2-ene-1,4-dione]",1000 to 10000 nM
10,"COc1ccc(C(=O)/C=C(\C)C(=O)N2CCN(C(=O)OC(C)(C)C)CC2)cc1 [Compound 166, tert-butyl (E)-4-(4-(4-methoxyphenyl)-2-methyl-4-oxobut-2-enoyl)piperazine-1-carboxylate]",10000 to 50000 nM
11,"CC(C)(C)OC(=O)N1CCN(C(=O)/C=C/C(=O)c2cccc(C(F)(F)F)c2)CC1 [Compound 162, tert-butyl (E)-4-(4-oxo-4-(3-(trifluoromethyl)phenyl)but-2-enoyl)piperazine-1-carboxylate]",< 100 nM
12,"COc1ccccc1C(=O)/C=C/C(=O)N1CCNCC1 [Compound 147, (E)-1-(2-methoxyphenyl)-4-(piperazin-1-yl)but-2-ene-1,4-dione]",1000 to 10000 nM
13,"Cc1cccc(C(=O)/C=C/C(=O)N2CCN(C(=O)OC(C)(C)C)CC2)c1 [Compound 157, tert-butyl (E)-4-(4-oxo-4-(m-toly1)but-2-enoyl)piperazine-1-carboxylate]",< 100 nM
14,"COc1ccc(C(=O)/C=C/C(=O)N2CCN(C(=O)OC(C)(C)C)CC2)cc1F [Compound 414, tert-butyl (E)-4-(4-(3-fluoro-4-methoxyphenyl)-4-oxobut-2-enoyl)piperazine-1-carboxylate]",< 100 nM

# Same assay, conditions: range with lower bound in nM and upper bound in μM
row,SMILES,IC50
1,"C#CCOc1ccc(C(=O)/C=C/C(=O)N2CCN(C(=O)OC(C)(C)C)CC2)cc1 [Compound 419, tert-butyl (E)-4-(4-oxo-4-(4-(prop-2-yn-1-yloxy)phenyl)but-2-enoyl)piperazine-1-carboxylate]",100 to 1000 nM
2,"CC(C)(C)OC(=O)N1CCN(C(=O)/C=C/C(=O)c2ccc3c(c2)OCCO3)CC1 [Compound 400, tert-butyl (E)-4-(4-(2,3-dihydrobenzo[b][1,4]dioxin-6-y1)-4-oxobut-2-enoy1)piperazine-1-carboxylate]",100 to 1000 nM
3,"Cc1ccc(C(=O)/C=C/C(=O)N2CCN(C(=O)OC(C)(C)C)CC2)cc1 [Compound 406, tert-butyl (E)-4-(4-oxo-4-(p-tolyl)but-2-enoyl)piperazine-1-carboxylate]",100 to 1000 nM
4,"CC(C)(C)OC(=O)N1CCN(C(=O)/C=C/C(=O)c2cccc(C#N)c2)CC1 [Compound 417, tert-butyl (E)-4-(4-(3-cyanophenyl)-4-oxobut-2-enoyl)piperazine-1-carboxylate]",100 to 1000 nM
5,"COc1cc(F)ccc1C(=O)/C=C/C(=O)N1CCN(C(=O)OC(C)(C)C)CC1 [Compound 413, tert-butyl (E)-4-(4-(4-fluoro-2-methoxyphenyl)-4-oxobut-2-enoyl)piperazine-1-carboxylate]",100 to 1000 nM
6,"CC(C)(C)OC(=O)N1CCN(C(=O)/C=C/C(=O)c2ccccc2Cl)CC1 [Compound 161, tert-butyl (E)-4-(4-(2-chlorophenyl)-4-oxobut-2-enoyl)piperazine-1-carboxylate]",100 to 1000 nM
7,"Cn1cc(C(=O)/C=C/C(=O)N2CCN(C(=O)OC(C)(C)C)CC2)ccc1=O [Compound 403, tert-butyl (E)-4-(4-(1-methyl-6-oxo-1,6-dihydropyridin-3-y1)-4-oxobut-2-enoyl)piperazine-1-carboxylate]",100 to 1000 nM
8,"C#CCCCCC(=O)N1CCN(C(=O)/C=C/C(=O)c2ccc(OC)cc2)CC1 [Compound 408, (E)-1-(4-(hept-6-ynoyl)piperazin-1-y1)-4-(4-methoxyphenyl)but-2-ene-1,4-dione]",100 to 1000 nM
9,"CC(C)(C)OC(=O)N1CCN(C(=O)/C=C/C(=O)c2ccccc2Br)CC1 [Compound 154, tert-butyl (E)-4-(4-(2-bromophenyl)-4-oxobut-2-enoyl)piperazine-1-carboxylate]",100 to 1000 nM
10,"CC(C)(C)OC(=O)N1CCN(C(=O)/C=C/C(=O)c2cccc(F)c2)CC1 [Compound 155, tert-butyl (E)-4-(4-(3-fluorophenyl)-4-oxobut-2-enoyl)piperazine-1-carboxylate]",100 to 1000 nM
11,"COc1ccc(C(=O)/C=C/C(=O)N2CCN(C(=O)OC(C)(C)C)CC2)c(F)c1 [Compound 412, tert-butyl (E)-4-(4-(2-fluoro-4-methoxyphenyl)-4-oxobut-2-enoyl)piperazine-1-carboxylate]",100 to 1000 nM
12,"COc1ccc(C(=O)/C=C/C(=O)N2CCN(C(=O)OC(C)(C)C)CC2)c(Cl)c1 [Compound 418, tert-butyl (E)-4-(4-(2-chloro-4-methoxyphenyl)-4-oxobut-2-enoyl)piperazine-1-carboxylate]",100 to 1000 nM
13,"C#CCOCCC(=O)N1CCN(C(=O)/C=C/C(=O)c2ccc(OC)cc2)CC1 [Compound 409, (E)-1-(4-methoxyphenyl)-4-(4-(3-(prop-2-yn-1-yloxy)propanoyl)piperazin-1-yl)but-2-ene-1,4-dione]",100 to 1000 nM
